For assay [1], the target named is purified human autoBACE-2 (Homo sapiens (Human), UniProt Q9Y5Z0). Briefly: BACE-2 Assay (BACE-HTRF assay). The class given is biochemical. In a few lines: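 Endpoint proteolysis of a QSY7/europium FRET peptide by purified human autoBACE-2, 5% DMSO final, read by time-resolved fluorescence at 620 nm after 320 nm excitation.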
For assay [2], the target named is soluble human BACE1 catalytic domain (Homo sapiens (Human), UniProt P56817). The experiment in a line: BACE1 HTRF FRET Assay.
Chain of soluble human BACE1 catalytic domain (P56817 75-416): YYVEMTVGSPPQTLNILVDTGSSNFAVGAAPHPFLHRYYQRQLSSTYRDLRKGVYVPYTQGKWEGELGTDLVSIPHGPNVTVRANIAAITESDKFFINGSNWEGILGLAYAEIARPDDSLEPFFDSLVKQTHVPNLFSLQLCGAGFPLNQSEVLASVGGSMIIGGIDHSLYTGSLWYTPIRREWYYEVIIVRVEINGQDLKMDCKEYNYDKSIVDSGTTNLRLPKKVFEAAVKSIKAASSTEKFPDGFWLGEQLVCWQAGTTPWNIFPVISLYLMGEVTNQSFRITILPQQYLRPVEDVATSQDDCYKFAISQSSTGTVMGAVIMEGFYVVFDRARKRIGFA
[3] abbreviates: Ki calculated from IC50 using the Cheng-Prusoff equation, read-out: BACE2 Ki.
Setting [4] is: read-out: BACE1 Ki, Ki calculated from IC50 using the Cheng-Prusoff equation.

Results on nine molecules are retold here after patent US9499502B2, “5-substituted iminothiazines and their mono- and dioxides as BACE inhibitors, compositions, and their use” (Merck Sharp & Dohme Corp., priority 2011, dated 2016).

Read-outs that look alike come from different tables or passages of the source.

Chain of purified human autoBACE-2 (Q9Y5Z0 63-473): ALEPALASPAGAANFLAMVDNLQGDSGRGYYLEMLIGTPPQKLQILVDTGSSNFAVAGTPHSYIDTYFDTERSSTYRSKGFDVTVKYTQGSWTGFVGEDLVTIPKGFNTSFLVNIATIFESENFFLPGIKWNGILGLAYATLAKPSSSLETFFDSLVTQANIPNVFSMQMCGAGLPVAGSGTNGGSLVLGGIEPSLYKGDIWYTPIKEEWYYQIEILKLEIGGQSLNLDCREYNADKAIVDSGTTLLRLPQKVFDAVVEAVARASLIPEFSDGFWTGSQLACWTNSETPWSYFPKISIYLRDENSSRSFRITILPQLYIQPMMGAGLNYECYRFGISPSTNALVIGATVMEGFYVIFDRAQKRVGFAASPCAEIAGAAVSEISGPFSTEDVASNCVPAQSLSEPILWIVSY

As to `CC1(C)C(=N)N[C@](C)(c2cc(N)ccc2F)CS1(=O)=O` [Example 2-2], the Ki in assay [1] is 500 to 10000 nM; in assay [2] (read-out: BACE1 inhibition, Ki), 6100 nM.
Turning to `CCC1C(=N)N[C@](C)(c2cc(NC(=O)c3ccc(F)cn3)ccc2F)CS1(=O)=O` (stereo partly drawn) [Example 9ca], the results for the Ki in assay [1] (setting [3]) and in assay [2] (setting [4]) were 9 nM and 33 nM, respectively.
On to `CC1(C)C(=N)N[C@](C)(c2sc(-c3cccc(C(F)(F)F)c3)cc2Cl)CS1(=O)=O` [Example 27e], for which the Ki in assay [1] (setting [3]) is ≤ 10 nM; in assay [2] (read-out: BACE1 Ki), 74.5 nM.
With `CC(F)(F)C(=O)Nc1cc(F)c(F)c([C@]2(C)CS(=O)(=O)C(C)(C)C(=N)N2)c1` [Example 9bl], the figures for the Ki in assay [1] (setting [3]) and in assay [2] (setting [4]) were 40 nM and 79 nM, respectively.
As for `C[C@@]1(c2ccccn2)C(=N)N[C@](C)(c2cc(N)ccc2F)CS1(=O)=O` [Entry 77], the inhibition at 10 µM is 29 to 47% in assay [1] (read-out: inhibition of BACE2 at 10 μM) and 25% in assay [2] (read-out: BACE1 inhibition, % Inh. at 10 μM, at 10 μM).
`Cc1ccc(C(=O)Nc2cc(F)c(F)c([C@]3(C)CS(=O)(=O)C(C)(C)C(=N)N3)c2)nc1` [Example 9bh]: the Ki is 4 nM in assay [1] (setting [3]) and 13 nM in assay [2] (setting [4]).
With `CC1(CC(F)(F)F)C(=N)N[C@](C)(c2sc(-c3ccc(F)c(C#N)c3)cc2F)CS1(=O)=O` (stereo partly drawn) [Example 27bm-a], the Ki in assay [1] (setting [3]) was 7 nM; in assay [2] (read-out: BACE1 Ki) it was 35 nM.
On to `C[C@@]1(c2ccccn2)C(=N)N[C@](C)(c2cc(NC(=O)c3ccc(F)cn3)ccc2F)CS1(=O)=O` [Example 9cv-b], for which the results for the Ki in assay [1] (setting [3]) and in assay [2] (setting [4]) were 11 to 100 nM and 187 nM, respectively.
For the molecule `CC1(C)C(=N)N[C@](C)(c2sc(-c3nnc(-c4ccc(F)cc4)o3)cc2Cl)CS1(=O)=O` [Example 27bb], the Ki in assay [1] (setting [3]) is ≤ 20 nM; in assay [2] (setting [4]) it was 102 nM.
